# Assay results: patent US20240390238A1, “MINIMALIST EMULSION COMPOSITIONS” (Baek Clinical Inc., priority 2021, published 2024)
# Assays:
# [1] = Solubility of optional additional components in the solvents; type: physicochemical
# Description: Additional ingredients were chosen for their compatibility with (e.g., miscibility in) 1,3 propanediol, 1,2 propanediol, and 1,3 butanediol.
# [2] = Protocol: A series of experiments were performed to assess and optimize the components of the subject vitamin C formulations. […] U refers to urea. % values are wt %
# [3] = Comparative studies of prior-art ascorbic acid solutions; type: physicochemical; conditions: ascorbic acid with urea in propylene glycol, butylene glycol and propanediol
# Protocol: This example was reproduced.
# All mixtures were heated to 85° C.
# [4] = test system: erythema (skin redness); conditions: concentrations of 0.2%; clinical data from SEPPIC; cited from earlier work
compound,measurement,setting,value
COc1cc(CC(C(C)=O)C(C)=O)ccc1O [Acetyl zingerone],"Solubility in 1,3 propanediol, 1,2 propanediol and 1,3 butanediol",[1]; at the desired concentrations (0.5-1%),readily soluble
"O=C(O)CCCCCCCC(=O)O [AzA, Azelaic acid, reference compound]","Concentration solubilized in 1,3 propanediol",[1],up to 10%
same,"Solubility in 1,3 propanediol in the presence of hydroxyethyl urea",[1],slightly increased
same,"Concentration solubilized in a 1,3 propanediol base","[1]; with 10% AA, 5% U",7.5%
"CC1(C)[C@@H](O[C@H]2O[C@H](C(=O)O)[C@@H](O)[C@H](O)[C@H]2O[C@@H]2O[C@H](C(=O)O)[C@@H](O)[C@H](O)[C@H]2O)CC[C@]2(C)[C@H]3C(=O)C=C4[C@@H]5C[C@@](C)(C(=O)O)CC[C@]5(C)CC[C@@]4(C)[C@]3(C)CC[C@@H]12 [glycyrrhizic acid, Glycyrrhizic acid]","Solubility in 1,3-propanediol",[1]; unlike 18B-glycyrrhetinic acid,shows solubility
NC(N)=O [urea],Minimum amount U required to solubilize 20% AA,[2],~10%
same,"Solubility of U in 1,3 propanediol (saturation reached before recrystallization of U)",[2],~27.8%
same,Maximum concentrations soluble before urea starts to precipitate (the ceiling),[3],20%
madecassoside,"Solubility in 1,3 propanediol, 1,2 propanediol and 1,3 butanediol",[1]; at a concentration of 0.2%,soluble
same,Erythema (skin redness),[4],desirable ability to reduce erythema
